From publication PMC5372681, “Study of Different Variants of Mo Enzyme crARC and the Interaction with Its Partners crCytb5-R and crCytb5-1” (International Journal of Molecular Sciences, 2017)

How the values were obtained:
Format in all cases: biochemical
[1] = molecular target: T1, crARC (Chlamydomonas reinhardtii, UniProt F8UWQ7, F210A); test: HPLC of adenine formed; settings: 0.5 mM HAP, 3 mM dithionite, 2 mM benzylviologen, 100 mM potassium phosphate pH 7.4, 37 °C
T1 construct: gene ARC; N-terminal His6 (pQE80), E. coli TP1000, Ni-NTA
T1 sequence (F8UWQ7 entry or part of it F210A): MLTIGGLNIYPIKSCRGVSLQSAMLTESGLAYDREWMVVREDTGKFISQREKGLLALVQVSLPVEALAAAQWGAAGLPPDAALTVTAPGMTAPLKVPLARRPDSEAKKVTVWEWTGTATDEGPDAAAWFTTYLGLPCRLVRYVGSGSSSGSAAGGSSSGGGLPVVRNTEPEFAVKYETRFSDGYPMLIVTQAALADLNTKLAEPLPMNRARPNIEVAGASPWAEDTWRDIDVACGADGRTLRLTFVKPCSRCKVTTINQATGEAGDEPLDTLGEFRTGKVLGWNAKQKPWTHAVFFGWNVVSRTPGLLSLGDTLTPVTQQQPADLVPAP

[2] = molecular target: T2, crARC (Chlamydomonas reinhardtii, UniProt F8UWQ7, D182A); test: HPLC of adenine formed; settings: 0.5 mM HAP, 3 mM dithionite, 2 mM benzylviologen, 100 mM potassium phosphate pH 7.4, 37 °C
T2 construct: gene ARC; N-terminal His6 (pQE80), E. coli TP1000, Ni-NTA
T2 sequence (F8UWQ7 entry or part of it D182A): as the sequence (F8UWQ7 entry or part of it F210A) above, with D182A, A210F counted along it

[3] = molecular target: T3, crARC (Chlamydomonas reinhardtii, UniProt F8UWQ7); test: HPLC of adenine formed; settings: 0.5 mM HAP, 3 mM dithionite, 2 mM benzylviologen, 100 mM potassium phosphate pH 7.4, 37 °C
T3 construct: gene ARC; N-terminal His6 (pQE80), E. coli TP1000, Ni-NTA
T3 sequence (F8UWQ7 entry or part of it): as the sequence (F8UWQ7 entry or part of it F210A) above, with A210F counted along it

[4] = molecular target: T4, crARC (Chlamydomonas reinhardtii, UniProt F8UWQ7, R276A); test: HPLC of adenine formed; settings: 0.5 mM HAP, 3 mM dithionite, 2 mM benzylviologen, 100 mM potassium phosphate pH 7.4, 37 °C
T4 construct: gene ARC; N-terminal His6 (pQE80), E. coli TP1000, Ni-NTA
T4 sequence (F8UWQ7 entry or part of it R276A): as the sequence (F8UWQ7 entry or part of it F210A) above, with A210F, R276A counted along it

[5] = molecular target: T3, crARC; test: HPLC of benzamidine formed; settings: 1 mM benzamidoxime, 3 mM dithionite, 2 mM benzylviologen, 100 mM potassium phosphate pH 7.4, 37 °C

| Structure (SMILES) | HPLC of adenine formed [1] | HPLC of adenine formed [2] | HPLC of adenine formed [3] | HPLC of adenine formed [4] | HPLC of benzamidine formed [5] |
| --- | --- | --- | --- | --- | --- |
| ONc1ncnc2[nH]cnc12 [HAP] | the mutants, D182A, F210A and R276A almost completely lost the mARC activity with dithionite | the mutants, D182A, F210A and R276A almost completely lost the mARC activity with dithionite | The crARC HAP reduction activity was determined with dithionite | the mutants, D182A, F210A and R276A almost completely lost the mARC activity with dithionite |  |
| NC(=NO)c1ccccc1 [benzamidoxime] |  |  |  |  | the crARC activity was assayed in vitro using benzamidoxime as a substrate |
